Data from US12678419B2, “Compounds” (Sitryx Therapeutics Limited, priority 2020, dated 2026).
Several values for one entry are separate records, joined by “and”; a condition that tells them apart may be missing. Identical values can stand only once.

Columns and labels:
[1] = tested on: IL-6 cytokine output from THP-1s; experiment: THP-1 AlphaLISA IL-6 cytokine assay; type: cell-based; conditions: Homo sapiens, LPS then nigericin, Table 1
Method: (§1) The cytokine inhibition profiles of compounds of formula (I) were determined in a differentiated THP-1 cell assay. All assays were performed in RPMI-1640 growth medium (Gibco), supplemented with 10% fetal bovine serum (FBS; Gibco), 1% penicillin-streptomycin and 1% sodium pyruvate unless specified otherwise. The IL-1β and IL-6 cytokine inhibition assays were each run in a background of differentiated THP-1 cells as described below. All reagents described were from Sigma-Aldrich unless specified otherwise. Compounds were prepared as 10 mM DMSO stocks.
(§2) THP-1 cells were expanded as a suspension up to 80% confluence in appropriate growth medium. Cells were harvested, suspended, and treated with an appropriate concentration of phorbol 12-myristate 13-acetate (PMA) over a 72 hr period (37° C./5% CO2).
(§3) Following 72 hrs of THP-1 cell incubation, cellular medium was removed and replaced with fresh growth media containing 1% of FBS. Working concentrations of compounds were prepared separately in 10% FBS treated growth medium and pre-incubated with the cells for 30 minutes (37° C./5% CO2). Following the 30 minute compound pre-incubation, THP-1s were treated with an appropriate concentration of LPS and the THP-1s were subsequently incubated for a 24 hr period (37° C./5% CO2). An appropriate final concentration of Nigericin was then dispensed into the THP-1 plates and incubated for 1 hour (37° C./5% CO2) before THP-1 supernatants were harvested and collected in separate polypropylene 96-well holding plates.
(§4) Reagents from each of the IL-1β and IL-6 commercial kits (Perkin Elmer) were prepared and run according to the manufacturer's instructions. Subsequently, fluorescence signal detection in a microplate reader was measured (EnVision® Multilabel Reader, Perkin Elmer).
(§5) Percentage inhibition was calculated per cytokine by normalising the sample data to the high and low controls used within each plate (+/− LPS respectively). Percentage inhibition was then plotted against compound concentration and the 50% inhibitory concentration (IC50) was determined from the resultant concentration-response curve.

[2] = tested on: human hepatocytes; experiment: Hepatocyte stability assay, human; type: in vitro ADME; conditions: 10 μM compound
Text: (§6) Defrosted cryo-preserved hepatocytes (viability >70%) were used to determine the metabolic stability of a compound via calculation of intrinsic clearance (Clint; a measure of the removal of a compound from the liver in the absence of blood flow and cell binding). Clearance data are particularly important for in vitro work as they can be used in combination with in vivo data to predict the half-life and oral bioavailability of a drug.
(§7) The metabolic stability in hepatocytes assay involves a time-dependent reaction using both positive and negative controls. The cells were pre-incubated at 37° C. and spiked with test compound (and positive control); samples were taken at pre-determined time intervals were analysed to monitor the change in concentration of the initial drug compound over 60 minutes. A buffer incubation reaction (with no hepatocytes present) acted as a negative control and two cocktail solutions, containing compounds with known high and low clearance values (verapamil/7-hydroxycoumarin and propranolol/diltiazem), acted as positive controls. • 1. The assay was run with a cell concentration of 0.5×10^6 cells/mL in Leibovitz buffer. • 2. All compounds and controls were run in duplicate. • 3. Compound concentration was 10 μM. • 4. All compounds and controls were incubated with both cells and buffer to show turnover was due to hepatic metabolism. • 5. All wells on the incubation plate had 326.7 μL of either cells or buffer added. • 6. Prior to assay, cell and buffer-only incubation plates were preincubated for 10 mins at 37° C. • 7. The assay was initiated by adding compounds, 3.3 μL of 1 mM in 10% DMSO-90% Buffer; final DMSO concentration was 0.1%. • 8. Samples were taken at regular timepoints (0, 5, 10, 20, 40, 60 min) until 60 mins. • 9. Sample volume was 40 μL and was added to 160 μL of crash solvent (acetonitrile with internal standard) and stored on ice. • 10. At the end of the assay, the crash plates were centrifuged at 3500 rpm for 20 mins at 4° C. • 11. 80 μL of clear supernatant was removed and mixed with 80 μL of deionised water before being analysed by LC-MS/MS.
(§8) Raw LC-MS/MS data was exported to, and analysed in, Microsoft Excel for determination of intrinsic clearance. The percentage remaining of a compound was monitored using the peak area of the initial concentration as 100%. Intrinsic clearance and half-life values were calculated using a graph of the natural log of percentage remaining versus the time of reaction in minutes. Half-life (min) and intrinsic clearance (Clint in μL min^−1 10^−6 cells) values were calculated using the gradient of the graph (the elimination rate constant, k) and Equations 1 and 2.

[3] = Hepatocyte stability assay, human; type: in vitro ADME; conditions: human, cryopreserved hepatocytes, 10 μM compound, read-out: T½
Text: as §6, §7, §8

[4] = tested on: IL-1β cytokine output from THP-1s; experiment: THP-1 AlphaLISA IL-1β cytokine assay; type: cell-based; conditions: Homo sapiens, LPS then nigericin, Table 1
Method: as §1, §2, §3, §4, §5

[5] = tested on: mouse hepatocytes; experiment: Hepatocyte stability assay, mouse; type: in vitro ADME; conditions: 10 μM compound
Text: as §6, §7, §8

[6] = Hepatocyte stability assay, mouse; type: in vitro ADME; conditions: mouse, cryopreserved hepatocytes, 10 μM compound, read-out: T½
Text: as §6, §7, §8

[7] = tested on: NRF2 (nuclear factor erythroid 2-related factor 2); experiment: NRF2 +/-GSH activation assay (DiscoverX PathHunter NRF2 translocation kit, U2OS cells); type: cell-based; conditions: for Emax (%) +GSH / Emax (%) −GSH: normalised to dimethyl fumarate high control
[8] = THP-1, differentiated THP-1 cells

| Structure (SMILES) | IC50 [1, 8] [µM] | Clint (μL min^−1 10^−6 cells) [2] [μL min^−1 10^−6 cells] | half-life at 10 μM [3] [min] | IC50 [4, 8] [µM] | Clint (μL min^−1 10^−6 cells) [5] [μL min^−1 10^−6 cells] | half-life at 10 μM [6] [min] | EC50 ([7]; +GSH) | Emax (%) +GSH ([7]; +GSH) | EC50 ([7]; −GSH) | Emax (%) −GSH ([7]; −GSH) | IC50 ([1]; differentiated THP-1 cells) [µM] | IC50 ([4]; differentiated THP-1 cells) [µM] |
| --- | --- | --- | --- | --- | --- | --- | --- | --- | --- | --- | --- | --- |
| C=C(CC(=O)OC1CCc2c(Cl)cc(Cl)cc21)C(=O)O[C@H](CC(=O)O)C(F)(F)F (single isomer, unassigned; diastereomer a) [Example 22] | 1.2 | 252 | 7 | 1.7 | >460 | < 3 | – | – | – | – | – | – |
| C=C(CC(=O)OC1CCc2c(Cl)cc(Cl)cc21)C(=O)O[C@@H](CC(=O)O)C(F)(F)F (single isomer, unassigned; diastereomer b) [Example 23] | 1.2 | 190 | 9 | 1.2 | >460 | < 3 | – | – | – | – | – | – |
| C=C(CC(=O)OC1CCc2cc(Cl)cc(Cl)c2C1)C(=O)OCC(=O)O (single isomer, unassigned; enantiomer 1) [Example 10, 2-((4-((6,8-dichloro-1,2,3,4-tetrahydronaphthalen-2-yl)oxy)-2-methylene-4-oxobutanoyl)oxy)acetic acid (Enantiomer 1)] | – | 18 | 81 | 6.6 | 225 | 7 | – | – | – | – | – | – |
| C=C(CC(=O)OC1CCc2c(Cl)cc(Cl)cc21)C(=O)OCCC(=O)O (single isomer, unassigned; enantiomer 1) [Example 14, 3-((4-((4,6-dichloro-2,3-dihydro-1H-inden-1-yl)oxy)-2-methylene-4-oxobutanoyl)oxy)propanoic acid (Enantiomer 1)] | – | 19 | 75 | 2.8 | 224 | 7 | 36.7 µM | 118% | 27.8 µM | 193% | – | – |
| C=C(CC(=O)OC1CCc2cc(C(F)(F)F)ccc21)C(=O)OCC(=O)O (single isomer, unassigned; enantiomer 1) [Example 27, 2-((2-methylene-4-oxo-4-((5-(trifluoromethyl)-2,3-dihydro-1H-inden-1-yl)oxy)butanoyl)oxy)acetic acid (Enantiomer 1)] | 8.6 | 9 | 169 | 11.9 | 97 | 16 | 35.1 µM and 37.5 µM | 139% and 136% | 12.2 µM and 22.2 µM | 157% and 201% | – | – |
| C=C(CC(=O)OC1CCCc2cc(C(F)(F)F)ccc21)C(=O)OCC(=O)O (single isomer, unassigned; enantiomer 1) [Example 31, 2-((2-methylene-4-oxo-4-((6-(trifluoromethyl)-1,2,3,4-tetrahydronaphthalen-1-yl)oxy)butanoyl)oxy)acetic acid (Enantiomer 1)] | 9.6 | 29 | 61 | 9.6 | 272 | 6 | 22.9 µM | 137% | 11.3 µM | 141% | – | – |
| C=C(CC(=O)OC1Cc2ccc(Cl)cc2C1)C(=O)OCC(=O)O (stereo not drawn) [Example 1, 2-((4-((5-chloro-2,3-dihydro-1H-inden-2-yl)oxy)-2-methylene-4-oxobutanoyl)oxy)acetic acid] | 10.2 | 3 | 449 | 29.2 | 46 | 41 | 34.6 µM | 125% | 25.6 µM | 139% | – | – |
| C=C(CC(=O)OC1Cc2cc(Cl)c(Cl)cc2C1)C(=O)OCC(=O)O [Example 4, 2-((4-((5,6-dichloro-2,3-dihydro-1H-inden-2-yl)oxy)-2-methylene-4-oxobutanoyl)oxy)acetic acid] | 4.6 | 13 | 119 | 12 | 83 | 16 | 16.5 µM | 182% | 7.5 µM | 196% | – | – |
| C=C(CC(=O)OC1(C)Cc2ccc(Cl)cc2C1)C(=O)OCC(=O)O (stereo not drawn) [Example 7, 2-((4-((5-chloro-2-methyl-2,3-dihydro-1H-inden-2-yl)oxy)-2-methylene-4-oxobutanoyl)oxy)acetic acid] | – | 17 | 86 | – | 142 | 10 | 22.3 µM | 135% | 14.5 µM | 155% | 8.2 | > 31.6 |
| C=C(CC(=O)OC1CCc2cc(C(F)(F)F)ccc21)C(=O)OCC(=O)O (stereo not drawn) [Example 17, 2-((2-methylene-4-oxo-4-((5-(trifluoromethyl)-2,3-dihydro-1H-inden-1-yl)oxy)butanoyl)oxy)acetic acid] | – | 6 | 227 | 2.8 | 72 | 21 | 35.4 µM | 184% | 29.2 µM | 305% | – | – |
| C=C(CC(=O)OC1(C)Cc2cc(Cl)c(Cl)cc2C1)C(=O)OCC(=O)O [Example 21, 2-((4-((5,6-dichloro-2-methyl-2,3-dihydro-1H-inden-2-yl)oxy)-2-methylene-4-oxobutanoyl)oxy)acetic acid] | 3.2 | 37 | 35 | 7.9 | 483 | 3 | 4 µM | 55% | 5.6 µM | 151% | – | – |
| C=C(CC(=O)OC1C(C)(C)c2cc(F)c(F)cc2C1(C)C)C(=O)OCC(=O)O [Example 26, 2-((4-((5,6-difluoro-1,1,3,3-tetramethyl-2,3-dihydro-1H-inden-2-yl)oxy)-2-methylene-4-oxobutanoyl)oxy)acetic acid] | 3 | 9 | 166 | 7.9 | >460 | < 3 | 7.7 µM | 145% | 4.1 µM | 216% | – | – |
